“And” between values parts separate entries of the source, which are not always exact repeats. Identical values can stand only once.
Tested on: sarcosine oxidase (BBI Solutions)
Assay: BBI Solutions Sarcosine Oxidase Enzyme Absorbance with BSA and MIT
Assay type: biochemical
Conditions: for Sarcosine Oxidase Enzyme Absorbance, MEAN of 7-11 / Sarcosine Oxidase Enzyme Absorbance, replicates 7-11 / Sarcosine Oxidase Enzyme Absorbance, MEAN of 1-5 / Sarcosine Oxidase Enzyme Absorbance, solutions 1-5: 37° C.
[1] = Day 0, 5 mg/mL BSA only, no MIT (50 ppm MIT row)
[2] = Day 0, 5 mg/mL BSA only, no MIT (100 ppm MIT row)
[3] = Day 0, 25 mg/mL BSA only, no MIT (50 ppm MIT row)
[4] = Day 0, 25 mg/mL BSA only, no MIT (100 ppm MIT row)
[5] = Day 0, 50 mg/mL BSA only, no MIT (50 ppm MIT row)
[6] = Day 0, 50 ppm MIT, 25 mg/mL BSA
[7] = Day 0, 50 ppm MIT, 50 mg/mL BSA
[8] = Day 0, 100 ppm MIT, 5 mg/mL BSA
[9] = Day 0, 100 ppm MIT, 25 mg/mL BSA
[10] = Day 0, 100 ppm MIT, 50 mg/mL BSA
[11] = Day 4, 50 ppm MIT, 25 mg/mL BSA
[12] = Day 4, 50 ppm MIT, 50 mg/mL BSA
[13] = Day 4, 100 ppm MIT, 5 mg/mL BSA
[14] = Day 4, 100 ppm MIT, 25 mg/mL BSA

Description: Tables 1-4 depict aqueous solutions comprising varying concentrations of BSA (at concentrations of 0 mg/mL, 5 mg/mL, 25 mg/mL, and 50 mg/mL), varying concentrations of MIT (at concentrations of 50 parts per million and 100 parts per million) or Proclin™ 300 (at concentrations of 0.7% and 1.4%) biocides over a particular time period (measurements were taken at days 0, 4, and 14 after exposure of the enzyme(s) to the aqueous solutions) and the associated enzyme absorbance measurements for sarcosine oxidase (commercially offered for sale by BBI Solutions and Toyobo). Absorbance measurements of the sarcosine oxidase enzyme(s) were taken via spectrophotometer for each aqueous solution (represented as columns 1-5 in Tables 1-4—column 6 is a blank), the absorbance being directly proportional to the enzyme activity being measured-which for Tables 1-4 is sarcosine oxidase enzyme activity. Accordingly, the higher the absorbance measurement, the higher the enzyme activity of sarcosine oxidase. Columns 7-11 represent five replicate readings in which the aqueous solution only contains BSA (i.e., there is no biocide(s) present in the aqueous solution). In addition, the mean values, standard deviations, and coefficients of variation are also presented for the enzyme activity/absorbance of each aqueous solution. All measurements were taken at 37° C.
As depicted below in Table 1, sarcosine oxidase (commercially offered for sale by BBI Solutions) enzyme activity is measured against various concentrations of MIT (biocide) and BSA (scavenger protein) over a period of 14 days (with absorbance measurements taken at 0, 4, and 14 days) for five different aqueous solutions (represented as columns 1-5—column 6 is a blank).

Sarcosine Oxidase Enzyme Absorbance, MEAN of 7-11 [1]: 1.39
Sarcosine Oxidase Enzyme Absorbance, replicates 7-11 [1]: 1.428
Sarcosine Oxidase Enzyme Absorbance, MEAN of 7-11 [2]: 1.38
Sarcosine Oxidase Enzyme Absorbance, replicates 7-11 [2]: 1.439 and 1.414 and 1.437 and 1.422
Sarcosine Oxidase Enzyme Absorbance, MEAN of 7-11 [3]: 1.37
Sarcosine Oxidase Enzyme Absorbance, replicates 7-11 [3]: 1.434
Sarcosine Oxidase Enzyme Absorbance, MEAN of 7-11 [4]: 1.39
Sarcosine Oxidase Enzyme Absorbance, replicates 7-11 [4]: 1.43 and 1.428 and 1.409 and 1.458
Sarcosine Oxidase Enzyme Absorbance, MEAN of 7-11 [5]: 1.41
Sarcosine Oxidase Enzyme Absorbance, replicates 7-11 [5]: 1.454
Sarcosine Oxidase Enzyme Absorbance, MEAN of 7-11 (Day 0, 50 mg/mL BSA only, no MIT (100 ppm MIT row)): 1.35
% Bias (Day 0, 50 ppm MIT vs no MIT, 5 mg/mL BSA): 2.3%
% Bias (Day 0, 50 ppm MIT vs no MIT, 25 mg/mL BSA): −0.5%
% Bias (Day 0, 50 ppm MIT vs no MIT, 50 mg/mL BSA): −0.1%
Sarcosine Oxidase Enzyme Absorbance, MEAN of 1-5 (Day 0, 50 ppm MIT, 5 mg/mL BSA): 1.42
Sarcosine Oxidase Enzyme Absorbance, MEAN of 1-5 [6]: 1.37
Sarcosine Oxidase Enzyme Absorbance, MEAN of 1-5 [7]: 1.41
% Bias (Day 0, 100 ppm MIT vs no MIT, 5 mg/mL BSA): −0.3%
% Bias (Day 0, 100 ppm MIT vs no MIT, 25 mg/mL BSA): 2.0%
% Bias (Day 0, 100 ppm MIT vs no MIT, 50 mg/mL BSA): 1.9%
Sarcosine Oxidase Enzyme Absorbance, MEAN of 1-5 [8]: 1.38
Sarcosine Oxidase Enzyme Absorbance, MEAN of 1-5 [9]: 1.41
Sarcosine Oxidase Enzyme Absorbance, MEAN of 1-5 [10]: 1.38
Sarcosine Oxidase Enzyme Absorbance, MEAN of 7-11 (Day 4, 5 mg/mL BSA only, no MIT (50 ppm MIT row)): 1.41
Sarcosine Oxidase Enzyme Absorbance, MEAN of 7-11 (Day 4, 5 mg/mL BSA only, no MIT (100 ppm MIT row)): 1.36
Sarcosine Oxidase Enzyme Absorbance, MEAN of 7-11 (Day 4, 25 mg/mL BSA only, no MIT (50 ppm MIT row)): 1.37
Sarcosine Oxidase Enzyme Absorbance, MEAN of 7-11 (Day 4, 25 mg/mL BSA only, no MIT (100 ppm MIT row)): 1.36
Sarcosine Oxidase Enzyme Absorbance, MEAN of 7-11 (Day 4, 50 mg/mL BSA only, no MIT (50 ppm MIT row)): 1.47
Sarcosine Oxidase Enzyme Absorbance, MEAN of 7-11 (Day 4, 50 mg/mL BSA only, no MIT (100 ppm MIT row)): 1.36
% Bias (Day 4, 50 ppm MIT vs no MIT, 5 mg/mL BSA): 1.4%
% Bias (Day 4, 50 ppm MIT vs no MIT, 25 mg/mL BSA): 3.0%
% Bias (Day 4, 50 ppm MIT vs no MIT, 50 mg/mL BSA): −7.2%
Sarcosine Oxidase Enzyme Absorbance, MEAN of 1-5 (Day 4, 50 ppm MIT, 5 mg/mL BSA): 1.43
Sarcosine Oxidase Enzyme Absorbance, solutions 1-5 (Day 4, 50 ppm MIT, 5 mg/mL BSA): 1.47 and 1.446 and 1.456 and 1.467
Sarcosine Oxidase Enzyme Absorbance, MEAN of 1-5 [11]: 1.41
Sarcosine Oxidase Enzyme Absorbance, MEAN of 1-5 [12]: 1.37
% Bias (Day 4, 100 ppm MIT vs no MIT, 5 mg/mL BSA): 1.5%
% Bias (Day 4, 100 ppm MIT vs no MIT, 25 mg/mL BSA): 1.0%
% Bias (Day 4, 100 ppm MIT vs no MIT, 50 mg/mL BSA): 1.0%
Sarcosine Oxidase Enzyme Absorbance, MEAN of 1-5 [13]: 1.38
Sarcosine Oxidase Enzyme Absorbance, solutions 1-5 [13]: 1.404 and 1.416 and 1.435 and 1.42
Sarcosine Oxidase Enzyme Absorbance, MEAN of 1-5 [14]: 1.37
Sarcosine Oxidase Enzyme Absorbance, MEAN of 1-5 (Day 4, 100 ppm MIT, 50 mg/mL BSA): 1.38
Substance: bovine serum albumin [BSA]
Sarcosine Oxidase Enzyme Absorbance, solutions 1-5 (Day 0, 50 ppm MIT, 5 mg/mL BSA): 1.484 and 1.435 and 1.486 and 1.455 and 1.454
Sarcosine Oxidase Enzyme Absorbance, solutions 1-5 [6]: 1.385 and 1.39 and 1.401 and 1.423 and 1.433
Sarcosine Oxidase Enzyme Absorbance, solutions 1-5 [7]: 1.445 and 1.468 and 1.458 and 1.406 and 1.484
Sarcosine Oxidase Enzyme Absorbance, solutions 1-5 [8]: 1.41 and 1.418 and 1.423 and 1.42 and 1.425
Sarcosine Oxidase Enzyme Absorbance, solutions 1-5 [9]: 1.447 and 1.459 and 1.456 and 1.449 and 1.468
Sarcosine Oxidase Enzyme Absorbance, solutions 1-5 [10]: 1.396 and 1.419 and 1.45 and 1.414 and 1.413
Sarcosine Oxidase Enzyme Absorbance, solutions 1-5 [11]: 1.446 and 1.431 and 1.432 and 1.448 and 1.434
Sarcosine Oxidase Enzyme Absorbance, solutions 1-5 [12]: 1.429 and 1.415 and 1.37 and 1.398 and 1.381
Sarcosine Oxidase Enzyme Absorbance, solutions 1-5 [14]: 1.42 and 1.392 and 1.415 and 1.383 and 1.4

Reference: US11339419B2, “Scavenger protein(s) for improved preservation of analyte detection sensor(s) and method(s) of use thereof” (Siemens Healthcare Diagnostics Inc., priority 2017, dated 2022)
